# Laboratory results reported in patent US6153740A, “cDNA encoding nucleoside transporter” (University of Alberta, priority 1997, dated 2000).
# Key:
# CNT1 [1] = molecular target: T1, CNT1 (Rattus norvegicus, UniProt Q62674); test: uptake/influx of radiolabelled nucleosides in Xenopus oocytes injected with pQQH1 (rat CNT1) cRNA; format: cell-based; settings: for mediated flux, rCNT1: 10 μM permeant (FIG. 14); for mediated influx, rCNT1 (adenosine/deoxyadenosine comparison): separate experiment, inset FIG. 14A
# T1 sequence (Q62674 1-648): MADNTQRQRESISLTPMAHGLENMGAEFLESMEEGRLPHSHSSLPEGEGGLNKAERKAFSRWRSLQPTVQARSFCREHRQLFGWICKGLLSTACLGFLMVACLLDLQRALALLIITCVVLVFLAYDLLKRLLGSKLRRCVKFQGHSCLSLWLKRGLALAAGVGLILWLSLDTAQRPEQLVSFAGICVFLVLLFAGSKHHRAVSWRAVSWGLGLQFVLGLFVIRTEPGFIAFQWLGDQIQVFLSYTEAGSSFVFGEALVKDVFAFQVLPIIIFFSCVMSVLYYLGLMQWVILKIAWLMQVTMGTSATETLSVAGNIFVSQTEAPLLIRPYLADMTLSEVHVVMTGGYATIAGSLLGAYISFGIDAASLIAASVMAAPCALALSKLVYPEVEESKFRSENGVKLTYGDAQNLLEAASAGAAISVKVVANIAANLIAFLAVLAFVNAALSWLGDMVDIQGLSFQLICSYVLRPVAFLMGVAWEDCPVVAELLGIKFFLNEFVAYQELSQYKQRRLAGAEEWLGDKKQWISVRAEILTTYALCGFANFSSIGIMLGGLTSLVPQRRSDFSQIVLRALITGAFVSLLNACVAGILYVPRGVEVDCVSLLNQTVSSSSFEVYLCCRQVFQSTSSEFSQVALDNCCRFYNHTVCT
# Procedure: (§1) Oocytes were injected with water or RNA transcribed in vitro from the nucleoside transporter cDNA (pQQH1). […] For panels c and d, the permeant concentration was 10 μM and competing nonradioactive nucleosides were present at a concentration of 1 mM.
# Oocytes injected with water or in vitro transcribed RNA from pQQH1 were incubated with radiolabeled permanent (10 μM) for 30 min (open columns) or 1 h (hatched columns) at 20° C. Each value represents the mean ±S. E. of 8-10 ooctyes.
# (§2) Remaining template was removed by digestion with RQ1 DNase. Oocytes were treated with collagenase to remove follicular layers (Huang et al, 1993) and injected with 10 ng of pQQH1 cRNA or water. […] At the end of the incubation, extracellular label was removed by six rapid ice-cold washes in the appropriate transport buffer. Individual oocytes were dissolved in 5% SDS for quantitation of oocyte-associated ^3 H by liquid scintillation counting (LS 6000 IC, Beckman).
# CNT1 [2] = molecular target: T1, CNT1; test: inhibition of CNT1-mediated nucleoside (uridine, AZT, ddC) transport in Xenopus oocytes; format: cell-based
# Procedure: as §1, §2
# hCNT1b = molecular target: T2, hCNT1b (Homo sapiens, UniProt O00337); test: inhibition of hCNT1b-mediated influx of [3H]uridine in Xenopus oocytes; format: cell-based; settings: uridine 10 μM
# T2 sequence (O00337 2-649 V189I/N409S/D521N): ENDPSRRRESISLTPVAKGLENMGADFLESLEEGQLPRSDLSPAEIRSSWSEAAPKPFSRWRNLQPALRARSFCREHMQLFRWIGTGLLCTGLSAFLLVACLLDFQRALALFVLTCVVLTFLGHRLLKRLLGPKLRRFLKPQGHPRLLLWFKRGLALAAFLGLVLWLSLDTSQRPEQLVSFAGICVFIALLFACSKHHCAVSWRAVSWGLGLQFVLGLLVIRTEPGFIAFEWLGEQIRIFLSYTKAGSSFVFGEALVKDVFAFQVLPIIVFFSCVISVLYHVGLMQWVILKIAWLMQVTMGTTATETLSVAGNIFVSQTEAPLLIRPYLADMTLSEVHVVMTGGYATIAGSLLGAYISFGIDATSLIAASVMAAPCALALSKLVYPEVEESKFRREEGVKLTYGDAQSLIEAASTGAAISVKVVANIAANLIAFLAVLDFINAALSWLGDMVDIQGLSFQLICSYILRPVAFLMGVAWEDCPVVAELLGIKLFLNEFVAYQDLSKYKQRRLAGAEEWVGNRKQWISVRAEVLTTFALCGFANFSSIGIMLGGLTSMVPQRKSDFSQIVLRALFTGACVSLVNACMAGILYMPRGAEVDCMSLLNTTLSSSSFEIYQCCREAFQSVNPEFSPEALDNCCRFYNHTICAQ
# Text: H2 O, water-injected oocytes.
# rat jejunum = test: uptake of [3H]AZT by rat jejunum in vivo
# CNT1 [3] = molecular target: T1, CNT1; settings: cited from earlier work
# [4] = tested on: human erythrocyte es transporter; settings: cited from earlier work
# cit transporter = settings: Terasaki et al, 1993; cited from earlier work
# human erythrocytes = settings: cited from earlier work
# [5] = cited from earlier work
# kidney = settings: humans, mice (adenosine also rat); cited from earlier work
# hCNT1a [6] = molecular target: T3, hCNT1a (Homo sapiens, UniProt O00337); test: inhibition of hCNT1a-mediated influx of [3H]uridine in Xenopus oocytes
# T3 sequence (O00337 with tags, fused parts or gaps E34G/INS140V): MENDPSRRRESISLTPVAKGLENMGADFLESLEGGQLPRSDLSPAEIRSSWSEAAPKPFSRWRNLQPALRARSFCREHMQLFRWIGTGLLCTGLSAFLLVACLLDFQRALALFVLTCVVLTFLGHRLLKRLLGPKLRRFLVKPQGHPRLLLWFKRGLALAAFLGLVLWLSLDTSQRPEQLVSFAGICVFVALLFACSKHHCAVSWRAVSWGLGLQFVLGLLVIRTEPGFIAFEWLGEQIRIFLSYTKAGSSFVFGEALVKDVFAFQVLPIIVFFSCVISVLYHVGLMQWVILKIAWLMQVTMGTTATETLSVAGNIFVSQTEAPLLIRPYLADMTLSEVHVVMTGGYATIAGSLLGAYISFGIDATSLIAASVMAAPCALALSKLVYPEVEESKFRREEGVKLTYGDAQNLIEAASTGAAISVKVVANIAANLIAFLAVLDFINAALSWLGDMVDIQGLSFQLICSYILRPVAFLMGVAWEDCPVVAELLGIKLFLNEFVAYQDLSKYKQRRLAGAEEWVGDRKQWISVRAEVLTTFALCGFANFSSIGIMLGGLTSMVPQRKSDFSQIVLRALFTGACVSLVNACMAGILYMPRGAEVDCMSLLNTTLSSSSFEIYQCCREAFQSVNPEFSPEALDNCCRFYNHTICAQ
# Procedure: (§3) H2 O, water-injected oocytes. Fluxes were not corrected for the contribution of endogenous transport activity.
# (§4) Defolliculated oocytes (Huang et al. 1993) were injected with either 10 nl of water containing 10 ng RNA transcript or 10 nl of water alone. Nucleoside uptake was measured after 3 d and was traced with the respective [^3 H] or [^14 C]nucleoside (Moravek Biochemicals)(5 μC 3H/ml, 1 μC 14C/ml). […] The transport buffer for adenosine influx experiments contained 1 μM deoxycoformycin to inhibit adenosine deaminase activity. Results are presented as means ±SEM for 10-12 individual oocytes. Kinetic constants were determined by non-linear regression analysis (ENZFITTER, Elsevier-Biosoft). Each experiment was performed at least twice on different batches of oocytes.
# hCNT1a [7] = molecular target: T3, hCNT1a; test: influx of radiolabelled nucleosides in Xenopus oocytes injected with hCNT1a RNA transcript; settings: for mediated flux, hCNT1a: 10 μM permeant (FIG. 14); for mediated influx, hCNT1a (adenosine/deoxyadenosine comparison): separate experiment, inset FIG. 14A
# Procedure: Oocytes were injected with either water alone or water containing hCNT1a RNA transcript.
# Oocytes were injected with either water alone (.tangle-solidup.) or water containing hCNT1a RNA transcript (.smallcircle.,.circle-solid.).
# Adenosine, guanosine and AZT (10 μM) fluxes were compared in the same batch of oocytes injected either with water (open columns) or with RNA transcript for hCNT1a or rCNT1 (hatched and solid columns, respectively).
# as §4
# CNT1 [8] = molecular target: T1, CNT1; test: inhibition of CNT1-mediated nucleoside (uridine, AZT, ddC) transport in Xenopus oocytes; format: cell-based; settings: 1 μM
# ei transporters = settings: Paterson et al, 1991; cited from earlier work
# CNT1 [9] = molecular target: T1, CNT1; settings: Yao et al. unpublished; read-out: inhibition constant, recombinant rCNT1; cited from earlier work
# [10] = tested on: isolated perfused rat kidneys; settings: secreted at higher concentrations; Trimble and Coulson, 1984; cited from earlier work
# hCNT1a [11] = molecular target: T3, hCNT1a; test: cell-based
# Procedure: as §3, §4
# [12] = Fang et al, 1996, Yao et al. unpublished
compound,measurement,setting,value
"Cc1cn([C@H]2C[C@H](N=[N+]=[N-])[C@@H](CO)O2)c(=O)[nH]c1=O [AZT, 3'-azido-3'-deoxythymidine]",CNT1-mediated uptake/transport,CNT1 [1]; 10 μM permeant,large increases
same,"mediated flux, rCNT1",CNT1 [1],4.10±0.34 pmol/oocyte.10 min^-1
same,Na+ dependence of initial rate of expressed uptake,"CNT1 [1]; 10 μM, 10-min flux",77%
same,Vmax,"CNT1 [1]; rat CNT1, permeant = labelled substance",28 pmol/oocyte.min^-1
same,Km,"CNT1 [1]; rate versus concentration studies, rat CNT1, read-out: apparent Km",490 µM
same,IC50,CNT1 [2],< 1000 µM
same,inhibition of hCNT1b-mediated influx of uridine,hCNT1b; analog 5 mM (FIG. 12B),inhibited
same,uptake of [3H]AZT by rat jejunum in vivo,rat jejunum,Na^+ -dependent
same,transport by recombinant rCNT1 in oocytes,CNT1 [3]; Yao et al. in press,transports AZT
same,transport by equilibrative nucleoside transporters,[4],not transported
same,"cit-mediated uridine transport, inhibition",cit transporter,inhibited
same,rate of entry into human erythrocytes relative to those of thymidine and cytidine,human erythrocytes,< 2%
same,excretion in the urine,"[5]; Good et al. 1990, Griffiths et al. 1992",excreted in the urine either unchanged or as the glucuronide conjugate
same,absorption by the gastrointestinal systems of humans and rats,[5]; oral,absorbed efficiently
same,net renal handling,kidney,net renal secretion
same,inhibition of hCNT1a-mediated influx of uridine,"hCNT1a [6]; uridine 10 μM, analog 5 mM (FIG. 12A)",inhibited
same,transport by hCNT1,hCNT1a [7],transport
same,"mediated flux, hCNT1a",hCNT1a [7],4.79±0.41 pmol/oocyte.10 min^-1
"O=[N+]([O-])c1ccc(CSc2ncnc3c2ncn3[C@@H]2O[C@H](CO)[C@@H](O)[C@H]2O)cc1 [NBMPR, 6-[(4-nitrobenzyl)thio]-9-p-D-ribofuranosylpurine]",effect on CNT1 transport,CNT1 [8],unaffected
same,"inhibition of equilibrative nucleoside transport in human erythrocytes, concentrations","[4]; Young and Jarvis, 1983, Paterson et al",namomolar concentrations
same,sensitivity of ei systems to inhibition,ei transporters,low (micromolar) sensitivity
Nc1ncnc2c1ncn2[C@@H]1O[C@H](CO)[C@@H](O)[C@H]1O [adenosine],"uridine:adenosine flux ratio, rCNT1",CNT1 [1]; 10 μM,110
same,"mediated flux, rCNT1",CNT1 [1],0.51±0.05 pmol/oocyte.10 min^-1
same,"mediated influx, rCNT1 (adenosine/deoxyadenosine comparison)",CNT1 [1]; 10 μM,0.70±0.0 pmol/oocyte.10 min^-1
same,selective inhibition of uridine and thymidine fluxes (rCNT1),"CNT1 [2]; adenosine, thymidine, cytidine, uridine>>guanosine, inosine",selective inhibition
same,"inhibition of uridine fluxes, hCNT1b",hCNT1b; competitor 1 mM (FIG. 12B),inhibited
same,"Vmax relative to uridine, recombinant rCNT1",CNT1 [3]; [12],lower Vmax
same,affinity of transport by recombinant rCNT1,CNT1 [3]; [12],same high affinity as uridine
same,Ki,CNT1 [9],29 µM
same,plasma concentration at which adenosine is reabsorbed,[10],less than 50 μM
same,net renal handling,kidney,net renal reabsorption
same,Ki,hCNT1a [6],50 ± 11 µM
same,"inhibition of uridine fluxes, hCNT1a","hCNT1a [6]; uridine 10 μM, competitor 1 mM (FIG. 12A), guanosine also in FIG. 13",inhibited
same,"uridine:adenosine flux ratio, hCNT1a",hCNT1a [7]; 10 μM,75
same,"mediated flux, hCNT1a",hCNT1a [7],0.49±0.03 pmol/oocyte.10 min^-1
same,"mediated influx, hCNT1a (adenosine/deoxyadenosine comparison)",hCNT1a [7]; 10 μM,0.60±0.01 pmol/oocyte.10 min^-1
"Nc1ncnc2c1ncn2[C@H]1C[C@H](O)[C@@H](CO)O1 [deoxyadenosine, 2'-deoxyadenosine]","mediated influx, rCNT1 (adenosine/deoxyadenosine comparison)",CNT1 [1]; 10 μM,0.11±0.02 pmol/oocyte.10 min^-1
same,Ki,hCNT1a [11],46 ± 14 µM
same,net renal handling,kidney,net renal secretion
same,"permeant quality, hCNT1",hCNT1a [7],poor hCNT1 permeants
same,"mediated influx, hCNT1a (adenosine/deoxyadenosine comparison)",hCNT1a [7]; 10 μM,0.14±0.02 pmol/oocyte.10 min^-1
